Measured values taken from patent EP0231151A2, “Immunosuppressant agents” (priority 1986, dated 1987).
Where two headings read alike, the source gives them in different places.

Legend:
[1] = tested on: lymphocyte responsiveness to allogenic stimulation; test: Mixed lymphocyte reaction test in mice, 1st variant (responder mice treated, ex vivo 3H thymidine incorporation); conditions: 5 mg/kg s.c., five days
Procedure: The ability of the compounds of the invention to reduce lymphocyte responsiveness to allogenic stimulation is measured in the mixed lymphocyte reaction test (MLR) wherein irradiated allogenic cells from stimulator mice induce a proliferative response in responder histo-incompatible cells.
Responder mice (Balb/c female, 8-10 weeks old) are treated sub-cutaneously for five days with the compounds of the invention. Equal numbers of murine stimulator lymphocytes (from stimulator, CBA, mice; lymphocytes irradiated in vitro with 200 R) and effector lymphocytes from the treated animals or control animals are incubated for five days. The 3H thymidine incorporated into lymphocyte DNA was used as a parameter for cell proliferation in response to an allogenic stimulus. [See S.S.Rich et al, J.Exp.Medicine, (1974), 140, 1588-1693].

[2] = No toxic effect level (NTEL) / tolerability, repeated oral dosing in dogs; conditions: dog, in vivo, over 4 weeks, Beagle dogs, p.o., read-out: Well tolerated dose
Text: (§1) Toxicity data for some of the comounds of the invention have been published. Such data may be determined by routine experimentation. TOXICITY DATA for representative compounds NTEL = No toxic effect level.

[3] = tested on: Local graft versus host (GvH); test: Local graft versus host (GvH) reaction in the rat, lymph node weight; assay type: in vivo
Procedure: Spleen cells (ca 1 x 10⁷) are taken from 6 week old Wistar/Furth/(W/F) rats and are injected into the left hind paw of female (F 344 x WF) F1 rats weighing about 100 g. The rats had been treated daily with the compound from 7 days before the injection and are treated daily for 3 days thereafter. The difference in weight between the left and right lymph nodes is taken as the parameter for evaluating the reaction.

[4] = tested on: basal serum prolactin levels; test: Lowering basal serum prolactin levels in the male rat (prolactin secretion inhibition); assay type: in vivo; conditions: lowering basal serum prolactin levels, male rat, after 4 hours; read-out: ID50 after 4 hours
Text: Many of the above mentioned compounds are published as prolactin secretion inhibitors, some of which are extremely potent and have long lasting activity. The potency of the compounds as prolactin secretion inhibitors can be determined in standard tests, e.g. by lowering basal serum prolactin levels in the male rat.
Results with representative compounds include:-

[5] = tested on: grafted neonatal heart tissue; test: Grafting of neonatal heart tissue into ears of mice, graft survival with co-administered cyclosporine; assay type: in vivo, mouse; conditions: 0.05 mg/kg/day s.c. with cyclosporine 18 mg/kg/day s.c.; group of 10 animals
Text: In this in-vivo test the rejection time of grafted neonatal heart tissue was increased by the compounds of the invention.
In one method a small incision was made at the base of the ear of a C 57 BL mouse (H-2^b). Blunt or fine tweezers were used to loosen the dorsal layer of skin from the cartilaginous layer in order to form a pocket. One half of a heart taken from 1 to 2 day old Balb/c mouse (H-2^d) was then inserted in the pocket. At 6 days post grafting and every week thereafter, the heart graft survival was monitored with microelectrodes placed on each side of the graft. A dynograft recorded was used to record electrical activity emanating from the graft. The end point of graft survival was taken as the time when the electrical activity was lost. Untreated mice rejected the implant after 8 1/2 days.
In this model effective immunosuppression was considered to have occurred if the time to rejection was increased to at least 17 days. […] With the compound A at 0.05 mg/kg/day, s.c.), 50 per cent of the heart allografts in a group of 10 animals were active on day 17.

[6] = No toxic effect level (NTEL), repeated oral dosing in rats; conditions: rat, in vivo, 4 weeks, p.o.
Text: as §1

[7] = tested on: splenic lymphocytes forming lytic antibodies to the SRBC; test: Antibody producing cell development in the mouse (PFC test), plaque forming cells to SRBC; assay type: in vivo; conditions: for percent change from control at 1 mg/kg/day: Mus musculus, Splenic lymphocyte, sc, 144 h, Test A, 1.0 mg/kg/day s.c., 6 days
Procedure: These methods permit the quantitation of the number of splenic lymphocytes forming lytic antibodies to the SRBC and the distinction between IgM and IgG producing cells.
The intravenous injection of SRBC (5 x 10⁷) in 0.2 ml i.v. served as the primary immunization antigen source in the mouse studies. The mice in these studies were female C57 black of ca 20 grams body weight. All animals were pretreated with the respective compounds for one day prior to the SRBC treatment and daily treated thereafter at 11.00 h for a total of 6 days. The spleens were removed for the determination of PFC numbers to the SRBC antigen.
The spleen cells were suspended in Hepes-buffered Balanced Salt Solution (HBSS), washed once, and resuspended in a volume adjusted according to the expected number of plaque forming cells. The direct quantitiation of IgM-PFC was performed by plaquing 0.1 ml of the diluted splenic cells with 0.025 ml of SRBC (30%), 0.3 ml Agar (0.5% in HBSS), and 0.025 ml complement (guinea pig serum) and plated on Petri dishes. An indirect method of IgG-PFC quantitation was performed with a monoclonal antibody to the IgM (1:4 dilution) plus an anti-gama polyspecific antiserum (1:800) to permit complement fixation. The splenic lymphocytes from each mouse spleen were plated to quantitate IgM- and IgG-PFC in duplicate. All plates were incubated for 4 hours at 37°C and then stored overnight in humidified chambers at 4°C. Plaques were counted by hand with the use of a plaque counter.

[8] = Acute toxicity (LD50) in the mouse; conditions: in vivo
Text: as §1

[9] = combination: 36 mg/kg/day s.c. of Cyclosporine with 0.1 mg/kg/day of compound A

Structure (SMILES) | dpm x 10^3/10 cells ± SD ([1]; 3H thymidine incorporation) [dpm x 10^3/10 cells] | inhibition at 5 mg/kg ([1]; Mus musculus, Lymphocyte, sc, 120 h, read-out: inhibited the response) [%] | NOAEL at 672 h [2] [mg/kg/day] | Weight lymph node ([3]; 5 mg/kg/day, control ca 55 mg) | Percentage Difference ([3]; 5 mg/kg/day, versus control ca 55 mg) [%] | ED50 [4] [mg/kg] | heart allografts active on day 17 [5] [per cent] | NOAEL at 672 h [6] [mg/kg/day] | percent change from control at 1 mg/kg/day ([7]; read-out: IgG % of control) [%] | percent change from control at 1 mg/kg/day ([7]; read-out: IgM % of control) [%] | reduction of IgG titre [7, 9] [%] | reduction of IgM titre [7, 9] [%] | LD50 at 168 h ([8]; iv, over 7 days, read-out: acute LD₅₀ (mouse) i.v.) [mg/kg] | LD50 at 336 h ([8]; po, over 14 days, read-out: acute LD₅₀ (mouse) p.o.) [mg/kg] | Weight lymph node ([3]; 0.01 mg/kg/day, control ca 63 mg) | Percentage Difference ([3]; 0.01 mg/kg/day, versus control ca 63 mg) [%]
Cc1[nH]c2cccc3c2c1C[C@@H]1[C@@H]3C[C@H](NC(=O)C(C)(C)C)CN1C [Compound E, (5R,8S,10R)-2,6-dimethyl-8α-pivaloylamino-ergoline] | 103218 ± 21497 | ~21 | ≥ 3 | ca 39 mg | -41 | – | – | – | – | – | – | – | – | – | – | –
CCCN1CC(NS(=O)(=O)N(CC)CC)CC2Cc3c(O)cccc3CC21 (stereo not shown) [Compound A] | – | – | – | – | – | 0.03 | 50 | 0.2 to 0.57 | -71.6 | -55.4 | 79.1 | 62.6 | 17 | 357 | ca 50 mg | -21
